Three compounds from ChEMBL document CHEMBL1151474, “Replication of Colonic Crohn's Disease Mucosal Escherichia coli Isolates within Macrophages and Their Susceptibility to Antibiotics” (Antimicrob Agents Chemother, 2008) can be followed below.

Broadly, the MIC is the lowest concentration that inhibits growth of the organism. Lower therefore signals inhibition by little substance. A word on the MBC: it is the smallest concentration meeting the test's criterion for killing. Lower therefore signals more potent killing. The Cmax is the maximum level reached in the sampled fluid or tissue.

Values after ≈ are worked out from the molar mass of the structure shown. Active and inactive are the calls of the source.

For data set [1], the system named is Escherichia coli. In words: Antibacterial activity against Escherichia coli isolate HM154 isolated from colonic mucosal biopsies of patient with Crohn's disease after 24 hrs by Etest antibiotic concentration gradient method. Format: functional. The settings on record: isolate HM154, 24 h.
The subject of data set [2] is Escherichia coli. In words: Antibacterial activity against mucosa-associated Escherichia coli isolate HM463 isolated from patient with irritable bowel syndrome or sporadic polyps after 24 hrs by Etest antibiotic concentration gradient method. The settings on record: isolate HM463, 24 h.
For data set [3], the system named is Escherichia coli. Kind of data set: Antibacterial activity against gentamicin-treated internalized Escherichia coli isolate HM605 in mouse J774A1 cells isolated from colonic mucosal biopsies of patient with Crohn's disease assessed as intracellular killing of bacteria at 10% compound Cmax after 3 hrs. The class given is functional, J774.A1.
For data set [4], the system named is Escherichia coli. In words: Antibacterial activity Escherichia coli isolate HM419 isolated from ileo-colonic mucosal biopsies of patient with Crohn's disease after 24 hrs by Etest antibiotic concentration gradient method. Format: functional. To be noted: isolate HM419, 24 h.
The test system of data set [5] is J774.A1. In words: Cytotoxicity against mouse J774A1 cells assessed as release of adenylate kinase at 100 ug/ml after 3 hrs […] relative to control. The class given is cell-based. The settings on record: j774.a1, 3 h.
In data set [6] the test system is Escherichia coli. Kind of data set: Antibacterial activity against Escherichia coli isolate LF82 isolated from colonic mucosal biopsies of patient with Crohn's disease after 24 hrs by Etest antibiotic concentration gradient method. To be noted: isolate LF82, 24 h.
The test system of data set [7] is Escherichia coli. Kind of data set: Antibacterial activity against mucosa-associated Escherichia coli isolate HM484 isolated from patient with irritable bowel syndrome or sporadic polyps after 24 hrs by Etest antibiotic concentration gradient method. The settings on record: isolate HM484, 24 h.
Data set [8] deals with Escherichia coli. Kind of data set: Antibacterial activity Escherichia coli isolate HM413 isolated from ileo-colonic mucosal biopsies of patient with Crohn's disease after 24 hrs by Etest antibiotic concentration gradient method. Format: functional. To be noted: isolate HM413, 24 h.
Data set [9] relates to Escherichia coli. Kind of data set: Antibacterial activity against Escherichia coli isolate HM95 isolated from ileal mucosal biopsies of patient with Crohn's disease after 24 hrs by Etest antibiotic concentration gradient method. Format: functional. The settings on record: isolate HM95, 24 h.
For data set [10], the system named is Escherichia coli. In words: Antibacterial activity against gentamicin-treated internalized Escherichia coli isolate HM580 in mouse J774A1 cells isolated from colonic mucosal biopsies of patient with Crohn's disease assessed as intracellular killing of bacteria at 10% compound Cmax after 3 hrs. Format: functional, J774.A1.
The test system of data set [11] is Escherichia coli. In words: Antibacterial activity against Escherichia coli isolate HM615 isolated from colonic mucosal biopsies of patient with Crohn's disease after 24 hrs by Etest antibiotic concentration gradient method. Format: functional. To be noted: isolate HM615, 24 h.
Data set [12] relates to Escherichia coli. In words: Antibacterial activity against extracellular Escherichia coli isolate HM605 isolated from colonic mucosal biopsies of patient with Crohn's disease at 0.01 to 10 ug/ml after 3 hrs. The class given is functional, organism-based.
Data set [13] concerns Escherichia coli. Kind of data set: Antibacterial activity against mucosa-associated Escherichia coli isolate HM454 isolated from patient with irritable bowel syndrome or sporadic polyps after 24 hrs by Etest antibiotic concentration gradient method. Format: functional. The settings on record: isolate HM454, 24 h.
Data set [14] concerns Escherichia coli. In words: Antibacterial activity against Escherichia coli isolate HM605 isolated from colonic mucosal biopsies of patient with Crohn's disease.
Data set [15] has as its system Escherichia coli. Kind of data set: Antibacterial activity against gentamicin-treated internalized Escherichia coli isolate LF82 in mouse J774A1 cells isolated from chronic ileal lesions of patient with Crohn's disease assessed as intracellular killing of bacteria at 10% compound Cmax after 3 hrs. The class given is functional, J774.A1.
In data set [16] the test system is Escherichia coli. In words: Antibacterial activity against Escherichia coli isolate HM580 isolated from colonic mucosal biopsies of patient with Crohn's disease after 24 hrs by Etest antibiotic concentration gradient method. Format: functional. To be noted: isolate HM580, 24 h.
For data set [17], the system named is Escherichia coli. In words: Antibacterial activity against gentamicin-treated internalized Escherichia coli isolate HM615 in mouse J774A1 cells isolated from colonic mucosal biopsies of patient with Crohn's disease assessed as intracellular killing of bacteria at 10% compound Cmax after 3 hrs. Format: functional, J774.A1.
For data set [18], the system named is Escherichia coli. In words: Antibacterial activity against mucosa-associated Escherichia coli isolate HM456 isolated from patient with irritable bowel syndrome or sporadic polyps after 24 hrs by Etest antibiotic concentration gradient method. Format: functional. To be noted: isolate HM456, 24 h.
Data set [19] deals with Escherichia coli. Kind of data set: Antibacterial activity against mucosa-associated Escherichia coli isolate HM428 isolated from patient with irritable bowel syndrome or sporadic polyps after 24 hrs by Etest antibiotic concentration gradient method. Format: functional. To be noted: isolate HM428, 24 h.
The test system of data set [20] is Escherichia coli. In words: Antibacterial activity against mucosa-associated Escherichia coli isolate HM488 isolated from patient with irritable bowel syndrome or sporadic polyps after 24 hrs by Etest antibiotic concentration gradient method. To be noted: isolate HM488, 24 h.
For data set [21], the system named is J774.A1. Kind of data set: Cytotoxicity against mouse J774A1 cells assessed as macrophage number at […] ug/ml after 3 hrs by total cell protein assay. Format: cell-based. To be noted: j774.a1, 3 h.
The subject of data set [22] is Escherichia coli. In words: Antibacterial activity against Escherichia coli K-12 after 24 hrs by Etest antibiotic concentration gradient method. Format: functional. To be noted: K-12, 24 h.
In data set [23] the test system is Escherichia coli. In words: Antibacterial activity against gentamicin-treated internalized Escherichia coli isolate HM605 isolated from colonic mucosal biopsies of patient with Crohn's disease in mouse J774A1 cells assessed as intracellular killing of bacteria at […] ug/ml after 3 hrs. Format: functional, J774.A1.
Data set [24] relates to Escherichia coli. In words: Antibacterial activity against Escherichia coli isolate HM605 isolated from colonic mucosal biopsies of patient with Crohn's disease after 24 hrs by Etest antibiotic concentration gradient method. The class given is functional. To be noted: isolate HM605, 24 h.
Data set [25] concerns Escherichia coli. Kind of data set: Antibacterial activity against Escherichia coli isolates isolated from patients with Crohn's disease at 5 ug/disk by susceptibility testing disk method. Format: functional.
The test system of data set [26] is Escherichia coli. In words: Antibacterial activity against mucosa-associated Escherichia coli isolates isolated from patients with Crohn's disease by disk diffusion method. Format: functional.
The subject of data set [27] is Escherichia coli. Kind of data set: Antibacterial activity against gentamicin-treated internalized Escherichia coli isolate HM605 isolated from colonic mucosal biopsies of patient with Crohn's disease in mouse J774A1 cells assessed as intracellular killing of bacteria at 1.7 ug/ml after 3 hrs. The class given is functional, J774.A1.
Data set [28] relates to J774.A1. Kind of data set: Cytotoxicity against mouse J774A1 cells assessed as macrophage number at 1.7 ug/ml after 3 hrs by total cell protein assay. The class given is cell-based. The settings on record: j774.a1, 3 h.
The nature of data set [29]: Cmax in patient with Billroth-II gastrectomy at 250 mg, po. Format: ADME, organism-based. More on the design: dose 250 mg, route oral. The settings on record: human, in vivo.
Data set [30] concerns Escherichia coli. Kind of data set: Antibacterial activity against Escherichia coli ATCC 25922 after 24 hrs by Etest antibiotic concentration gradient method. Format: functional, organism-based.

As to `O=C(O)c1cn(C2CC2)c2cc(N3CCNCC3)c(F)cc2c1=O` [CIPROFLOXACIN], the MIC against Escherichia coli [1], in the data set on Escherichia coli [2], against Escherichia coli [4], against Escherichia coli [6], against Escherichia coli [7] and against Escherichia coli [8] was no more than 1 µg/mL throughout. The MIC against Escherichia coli [9], with Escherichia coli [11], with Escherichia coli [13], against Escherichia coli [16], in the data set with Escherichia coli [18] and against Escherichia coli [19] was no more than 1 µg/mL in each case. The MIC against Escherichia coli [20] was no more than 1 µg/mL. Also, the Activity turned out to be 86% in the data set on Escherichia coli [3]; 90% in the data set with J774.A1 [5]; 90.4% in the data set with Escherichia coli [10]; 87.6% in the data set on Escherichia coli [15]; 83.8% in the data set on Escherichia coli [17]. Also, the result in the data set with Escherichia coli [12] was Active. Further, the MBC with Escherichia coli [14] was found to be 0.3 µg/mL (≈ 0.905 µM).
Turning to `CO[C@H]1/C=C/O[C@@]2(C)Oc3c(C)c(O)c4c(O)c(c(/C=N/N5CCN(C)CC5)c(O)c4c3C2=O)NC(=O)/C(C)=C\C=C\[C@H](C)[C@H](O)[C@@H](C)[C@@H](O)[C@@H](C)[C@H](OC(C)=O)[C@@H]1C` [RIFAMPIN], the MIC with Escherichia coli [1] is no less than 4 µg/mL; against Escherichia coli [4], no less than 4 µg/mL; against Escherichia coli [22], 3 µg/mL (≈ 3.65 µM); in the data set with Escherichia coli [8] it was 2 µg/mL (≈ 2.43 µM); against Escherichia coli [9], no less than 4 µg/mL; with Escherichia coli [11] it was no less than 4 µg/mL. Further, the MIC in the data set on Escherichia coli [13] is no less than 4 µg/mL; in the data set on Escherichia coli [24], 6 µg/mL (≈ 7.29 µM); in the data set on Escherichia coli [16], no less than 4 µg/mL; with Escherichia coli [18], no less than 4 µg/mL; in the data set with Escherichia coli [19], no less than 4 µg/mL. In addition, the Activity in the data set with Escherichia coli [3] is given as 32.6%; with J774.A1 [21] it was 94.4; with J774.A1 [5], 90%; with Escherichia coli [23] it was 85.1%; in the data set on Escherichia coli [10] it was 35.8%; with Escherichia coli [15], 32.8%. Further, the Activity is reported as 0% in the data set on Escherichia coli [25] and 80.2% in the data set on Escherichia coli [17]. Further, the result with Escherichia coli [12] was Active. Moreover, in the data set with Escherichia coli [14], the MBC came to 3 µg/mL (≈ 3.65 µM).
For `CN(C)[C@@H]1C(O)=C(C(N)=O)C(=O)[C@@]2(O)C(O)=C3C(=O)c4c(O)cccc4[C@@](C)(O)[C@H]3C[C@@H]12` [TETRACYCLINE], the MIC is no more than 4 µg/mL in the data set with Escherichia coli [1]; no more than 4 µg/mL against Escherichia coli [4]; no more than 4 µg/mL in the data set with Escherichia coli [8]; no more than 4 µg/mL in the data set on Escherichia coli [9]; no more than 4 µg/mL with Escherichia coli [11]; 2 µg/mL (≈ 4.5 µM) against Escherichia coli [24]. The MIC against Escherichia coli [16], against Escherichia coli [18] and with Escherichia coli [19] was no more than 4 µg/mL throughout. The Activity in the data set on Escherichia coli [26] was determined as 67%; in the data set with Escherichia coli [3], 44.8%; in the data set on Escherichia coli [27], 62.8%; in the data set on J774.A1 [28], 55.9; with J774.A1 [5], 90%; with Escherichia coli [10], 62.4%. In addition, the Activity in the data set on Escherichia coli [15] came out at 64.2%; in the data set on Escherichia coli [17], 69.6%. Further, the Cmax in data set [29] amounted to 1700 ng/mL. Further, the result with Escherichia coli [12] and in the data set with Escherichia coli [30] was Active. Further, the MBC against Escherichia coli [14] worked out at 1 µg/mL (≈ 2.25 µM).
